Data: US7968577B2 (Bristol-Myers Squibb Company, priority 2006, dated 2011)

Each compound was assayed against T1, human full-length glucocorticoid receptor (Homo sapiens, UniProt P04150) (assay: Glucocorticoid Receptor Binding Assay (II), fluorescence polarization competitor kit (Fluormone GS1)). Conditions: GR Binding Assay (II).
T1 construct: recombinantly expressed human full-length glucocorticoid receptor; purchased PanVera Co., Madison, Wis; P2816
T1 sequence (P04150 1-777): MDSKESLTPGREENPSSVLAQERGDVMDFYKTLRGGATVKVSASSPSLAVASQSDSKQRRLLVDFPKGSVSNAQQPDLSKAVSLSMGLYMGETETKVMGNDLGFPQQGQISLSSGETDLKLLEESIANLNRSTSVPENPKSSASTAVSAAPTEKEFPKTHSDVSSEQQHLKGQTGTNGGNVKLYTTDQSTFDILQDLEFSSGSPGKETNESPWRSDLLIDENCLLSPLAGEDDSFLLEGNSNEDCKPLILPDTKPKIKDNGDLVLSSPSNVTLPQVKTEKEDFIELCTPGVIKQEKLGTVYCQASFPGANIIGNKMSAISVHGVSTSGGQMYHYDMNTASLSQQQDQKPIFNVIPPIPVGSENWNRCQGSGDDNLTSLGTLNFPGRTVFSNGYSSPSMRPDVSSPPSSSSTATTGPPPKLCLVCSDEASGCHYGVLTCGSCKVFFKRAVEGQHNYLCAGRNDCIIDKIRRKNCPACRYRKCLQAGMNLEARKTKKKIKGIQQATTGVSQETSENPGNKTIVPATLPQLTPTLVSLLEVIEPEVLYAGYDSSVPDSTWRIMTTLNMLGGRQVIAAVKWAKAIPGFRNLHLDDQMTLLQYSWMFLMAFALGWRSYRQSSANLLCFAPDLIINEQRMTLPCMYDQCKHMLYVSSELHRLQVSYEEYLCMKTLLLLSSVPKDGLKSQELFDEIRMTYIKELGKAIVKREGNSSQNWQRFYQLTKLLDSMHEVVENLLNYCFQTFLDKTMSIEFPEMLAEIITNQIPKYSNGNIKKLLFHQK
Procedure: Glucocorticoid Receptor Binding Assay (II)^b
In order to measure the binding of compounds on the glucocorticoid receptor a commercially available kit was used (Glucocorticoid receptor competitor assay kit, PanVera Co., Madison, Wis., P2816). Briefly, a cell lysate containing recombinantly expressed human full-length glucocorticoid receptor was mixed with a fluorescently labeled glucocorticoid (1 nM Fluormone GS1) in the presence or absence of test compound. After one hour at room temperature, the fluorescence polarization (FP) of the samples were measured.

Which Ki does the source give for `CC(=O)c1cccc(C(c2ccccc2)C(C)(C)C(=O)Nc2nccs2)c1` (stereo not drawn) [Example 370, 3-(3-acetylphenyl)-2,2-dimethyl-3-phenyl-N-1,3-thiazol-2-ylpropanamide] here?
Its Ki is 60.9 nM.

For `CC(C)(C(=O)Nc1nccs1)C(c1ccccc1)c1cccc(C#N)c1` (stereo not drawn) [Example 313, 3-(3-cyanophenyl)-2,2-dimethyl-3-phenyl-N-1,3-thiazol-2-ylpropanamide], which Ki is on record?
Its Ki is 57.6 nM.

With `CC(C)(C(=O)Nc1nccs1)C(c1ccccc1)c1ccc(Br)cc1` (stereo not drawn) [Example 317, 3-(4-bromophenyl)-2,2-dimethyl-3-phenyl-N-1,3-thiazol-2-ylpropanamide] as the compound, how does the Ki read?
The Ki was 23.2 nM.

With `CC(C)(C(=O)Nc1nncs1)C(c1ccccc1)c1ccc(Br)c(F)c1` (stereo not drawn) [Example 315, 3-(4-bromo-3-fluorophenyl)-2,2-dimethyl-3-phenyl-N-1,3,4-thiadiazol-2-ylpropanamide] as the compound, how does the Ki read?
Its Ki is 10.9 nM.

For `CC(C)(C(=O)Nc1nccs1)[C@H](c1ccccc1)c1cccc(O)c1` [Example 328, 3-(3-hydroxyphenyl)-2,2-dimethyl-3-phenyl-N-1,3-thiazol-2-ylpropanamide], which Ki is on record?
Its Ki is 17.8 nM.

For `COc1ccc([C@H](c2ccccc2)C(C)(C)C(=O)Nc2ccncn2)cc1` [Example 278, (3S)-2,2-dimethyl-3-(4-(methyloxy)phenyl)-3-phenyl-N-4-pyrimidinylpropanamide], which Ki is on record?
Its Ki is 1850 nM.

For `CC(C)(C(=O)Nc1nncs1)C(c1ccccc1)c1ccc(N)cc1` (stereo not drawn) [Example 252, 3-(4-aminophenyl)-2,2-dimethyl-3-phenyl-N-1,3,4-thiadiazol-2-ylpropanamide], which Ki is on record?
The Ki was 60.5 nM.

Which Ki does the source give for `CC(C)(C)OC(=O)N1CCN(c2ccc(C(c3ccccc3)C(C)(C)C(=O)Nc3nccs3)cc2)CC1` (stereo not drawn) [Example 239, 2,2-dimethylethyl 4-(4-(2,2-dimethyl-3-oxo-1-phenyl-3-(1,3-thiazol-2-ylamino)propyl)phenyl)-1-piperazinecarboxylate] here?
The Ki was 324 nM.

How did the Ki turn out when `CC(C)(C(=O)N1CCOCC1)[C@@H](c1ccccc1)c1ccc(O)cc1` [Example 337, 4-((1S)-2,2-dimethyl-3-(4-morpholinyl)-3-oxo-1-phenylpropyl)phenol] was run?
The Ki was 2090 nM.

For `COc1ccc(C(c2ccccc2)C(C)(C)C(=O)Nc2nncs2)c(F)c1` (stereo not drawn) [Example 280, 3-(2-fluoro-4-(methyloxy)phenyl)-2,2-dimethyl-3-phenyl-N-1,3,4-thiadiazol-2-ylpropanamide], which Ki is on record?
Its Ki is 100 nM.

`COc1ccc(C(c2ccccc2)C(C)(C)C(=O)Nc2nccs2)c(F)c1` (stereo not drawn) [Example 279, 3-(2-fluoro-4-(methyloxy)phenyl)-2,2-dimethyl-3-phenyl-N-1,3-thiazol-2-ylpropanamide] was tested. Which Ki did it give?
The Ki was 74.7 nM.

With `CC(C)(C(=O)Nc1nccs1)C(c1ccccc1)c1ccc(Cl)cc1` (stereo not drawn) [Example 306, 3-(4-chlorophenyl)-2,2-dimethyl-3-phenyl-N-1,3-thiazol-2-ylpropanamide] as the compound, how does the Ki read?
The Ki was 26.3 nM.

With `COc1ccc([C@H](c2ccccc2)C(C)(C)C(=O)NC2CCC2)cc1` [Example 271, (3S)-N-cyclobutyl-2,2-dimethyl-3-(4-(methyloxy)phenyl)-3-phenylpropanamide] as the compound, how does the Ki read?
Its Ki is 770 nM.

Which Ki does the source give for `CC(C)(C(=O)Nc1nncs1)C(c1ccccc1)c1ccc(N2CCC(O)CC2)cc1` (stereo not drawn) [Example 241, 3-(4-(4-hydroxy-1-piperidinyl)phenyl)-2,2-dimethyl-3-phenyl-N-1,3,4-thiadiazol-2-ylpropanamide] here?
Its Ki is 31.3 nM.

How did the Ki turn out when `CC(C)(C(=O)Nc1nccs1)[C@H](c1ccccc1)c1ccc(OC(=O)c2ccco2)cc1` [Example 363, 4-((1R)-2,2-dimethyl-3-oxo-1-phenyl-3-(1,3-thiazol-2-ylamino)propyl)phenyl 2-furancarboxylate] was run?
The Ki was 47 nM.

`CC(C)(C(=O)Nc1nccs1)C(c1ccccc1)c1ccc(O)c(F)c1` (stereo not drawn) [Example 346, 3-(3-fluoro-4-hydroxyphenyl)-2,2-dimethyl-3-phenyl-N-1,3-thiazol-2-ylpropanamide] was tested. Which Ki did it give?
The Ki was 16 nM.

Which Ki does the source give for `Cc1cnc(NC(=O)C(C)(C)[C@H](c2ccccc2)c2ccc(O)cc2)s1` [Example 332, (3R)-3-(4-hydroxyphenyl)-2,2-dimethyl-N-(5-methyl-1,3-thiazol-2-yl)-3-phenylpropanamide] here?
Its Ki is 204 nM.

`CC(C)(C(=O)Nc1nccs1)[C@H](c1ccccc1)c1ccc(O)c(C#N)c1` [Example 358] was tested. Which Ki did it give?
The Ki was 22.9 nM.

How did the Ki turn out when `CC(C)(C(=O)NC1CCCC1)[C@H](c1ccccc1)c1ccc(O)cc1` [Example 336, (3R)-N-cyclopentyl-3-(4-hydroxyphenyl)-2,2-dimethyl-3-phenylpropanamide] was run?
The Ki was 504 nM.

`CC(C)(C(=O)Nc1nccs1)C(c1ccccc1)c1ccc(-c2ccoc2)cc1` (stereo not drawn) [Example 376, 3-(4-(3-furanyl)phenyl)-2,2-dimethyl-3-phenyl-N-1,3-thiazol-2-ylpropanamide] was tested. Which Ki did it give?
The Ki was 15.8 nM.

How did the Ki turn out when `CC(C)(C(=O)Nc1nncs1)C(c1ccccc1)c1ccc(N2CCCC2)cc1` (stereo not drawn) [Example 237, 2,2-dimethyl-3-phenyl-3-(4-(1-pyrrolidinyl)phenyl)-N-1,3,4-thiadiazol-2-ylpropanamide] was run?
Its Ki is 13.6 nM.

`CC(C)(C(=O)Nc1nccs1)C(c1ccccc1)c1ccc(C#N)cc1` (stereo not drawn) [Example 310, 3-(4-cyanophenyl)-2,2-dimethyl-3-phenyl-N-1,3-thiazol-2-ylpropanamide] was tested. Which Ki did it give?
The Ki was 26.6 nM.

Which Ki does the source give for `CC(=O)c1ccc(C(c2ccccc2)C(C)(C)C(=O)Nc2nccs2)cc1` (stereo not drawn) [Example 368, 3-(4-Acetylphenyl)-2,2-dimethyl-3-phenyl-N-1,3-thiazol-2-ylpropanamide] here?
Its Ki is 19.2 nM.

Which Ki does the source give for `COc1ccc([C@@H](c2ccccc2)C(C)(C)C(=O)Nc2ncc(C)s2)cc1` [Example 268, (3R)-2,2-dimethyl-3-(4-(methyloxy)phenyl)-N-(5-mehtyl-1,3-thiazol-2-yl)-3-phenylpropanamide] here?
The Ki was 302 nM.

With `CC(C)(C(=O)Nc1nccs1)C(c1ccccc1)c1ccc(Nc2ccc(F)cc2)cc1` (stereo not drawn) [Example 243, 3-(4-((4-fluorophenyl)amino)phenyl)-2,2-dimethyl-3-phenyl-N-1,3-thiazol-2-ylpropanamide] as the compound, how does the Ki read?
The Ki was 29.1 nM.

`COc1ccc([C@H](c2ccccc2)C(C)(C)C(=O)NC2CCCC2)cc1` [Example 273, (3S)-N-cyclopentyl-2,2-dimethyl-3-(4-(methyloxy)phenyl)-3-phenylpropanamide] was tested. Which Ki did it give?
Its Ki is 987 nM.

How did the Ki turn out when `COc1ccc(C(c2ccccc2)C(C)(C)C(=O)Nc2nccs2)cc1F` (stereo not drawn) [Example 283, 3-(3-fluoro-4-(methyloxy)phenyl)-2,2-dimethyl-3-phenyl-N-1,3-thiazol-2-ylpropanamide] was run?
The Ki was 9.2 nM.

For `COc1ccc([C@H](c2ccccc2)C(C)(C)C(=O)Nc2nc(C)cs2)cc1` [Example 265, 2,2-dimethyl-3-(4-(methyloxy)phenyl)-N-(4-methyl-1,3-thiazol-2-yl)-3-phenylpropanamide], which Ki is on record?
Its Ki is 193 nM.

For `CC(C)(C(=O)Nc1nccs1)C(c1ccc(F)cc1)c1ccc(N2CCOCC2)cc1` (stereo not drawn) [Example 222, 3-(4-Fluorophenyl)-2,2-dimethyl-3-(4-(4-morpholinyl)phenyl)-N-1,3-thiazol-2-ylpropanamide], which Ki is on record?
Its Ki is 12.6 nM.

Which Ki does the source give for `CC(C)(C(=O)Nc1ccccn1)[C@@H](c1ccccc1)c1ccc(O)cc1` [Example 341, (3S)-3-(4-hydroxyphenyl)-2,2-dimethyl-3-phenyl-N-2-pyridinylpropanamide] here?
Its Ki is 175 nM.

Which Ki does the source give for `COc1ccc(C(c2ccccc2)C(C)(C)C(=O)Nc2nncs2)cc1F` (stereo not drawn) [Example 284, 3-(3-fluoro-4-(methyloxy)phenyl)-2,2-dimethyl-3-phenyl-N-1,3,4-thiadiazol-2-ylpropanamide] here?
Its Ki is 26.9 nM.

Which Ki does the source give for `Cc1csc(NC(=O)C(C)(C)[C@H](c2ccccc2)c2ccc(O)cc2)n1` [Example 330, (3R)-3-(4-hydroxyphenyl)-2,2-dimethyl-N-(4-methyl-1,3-thiazol-2-yl)-3-phenylpropanamide] here?
Its Ki is 169 nM.

Which Ki does the source give for `CC(C)(C(=O)Nc1nccs1)C(c1ccc(Cl)cc1)c1ccc(N2CCOCC2)cc1` (stereo not drawn) [Example 232, 3-(4-chlorophenyl)-2,2-dimethyl-3-(4-(4-morpholinyl)phenyl)-N-1,3-thiazol-2-ylpropanamide] here?
The Ki was 14.5 nM.

How did the Ki turn out when `COc1ccc([C@@H](c2ccccc2)C(C)(C)C(=O)NC2CCCC2)cc1` [Example 274, (3R)-N-cyclopentyl-2,2-dimethyl-3-(4-(methyloxy)phenyl)-3-phenylpropanamide] was run?
The Ki was 1530 nM.

`COc1ccc(C(c2ccccc2)C(C)(C)C(=O)Nc2nccs2)cc1F` (stereo not drawn) [Example 281, 3-(3-fluoro-4-(methyloxy)phenyl)-2,2-dimethyl-3-phenyl-N-1,3-thiazol-2-ylpropanamide] was tested. Which Ki did it give?
The Ki was 15.5 nM.

With `CC(C)(C(=O)Nc1nccs1)[C@H](c1ccccc1)c1ccc(OC(=O)C2CCCO2)cc1` (stereo partly drawn) [Example 367, 4-((1R)-2,2-dimethyl-3-oxo-1-phenyl-3-(1,3-thiazol-2-ylamino)propyl)phenyl tetrahydro-2-furancarboxylate] as the compound, how does the Ki read?
The Ki was 26.9 nM.
